Assay results published in paper PMC11109624, “Celastrol Ameliorates Neuronal Mitochondrial Dysfunction Induced by Intracerebral Hemorrhage via Targeting cAMP‐Activated Exchange Protein‐1” (Advanced Science, 2024).

Molecular target: T1, cNMP-EPAC-1 (cNMP domain of EPAC-1, 149-318) (Homo sapiens, UniProt O95398)
T1 construct: gene RAPGEF3; pGEX4T1 N-terminal GST tag, removed by protease; E. coli BL21(DE3); glutathione, Ni-NTA and Superdex 75
T1 sequence (O95398 191-360): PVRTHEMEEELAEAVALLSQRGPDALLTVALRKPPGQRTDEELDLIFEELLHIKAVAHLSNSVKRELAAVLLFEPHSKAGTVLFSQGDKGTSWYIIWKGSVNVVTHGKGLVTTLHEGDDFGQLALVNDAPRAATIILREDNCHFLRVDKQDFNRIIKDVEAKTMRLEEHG
Assay: isothermal titration calorimetry (MicroCal iTC200)
Type: binding

With CC1=C(O)C(=O)C=C2C1=CC=C1[C@@]2(C)CC[C@@]2(C)[C@@H]3C[C@](C)(C(=O)O)CC[C@]3(C)CC[C@]12C [celastrol] the Kd was 1.57 µM.
